Experimental data: patent US20230218573A1, “INDOLE COMPOUNDS FOR THE TREATMENT OF NEURODEGENERATIVE DISEASES” (GALYAN BIO, INC., priority 2020, published 2023)
“Also recorded” adds a separate entry of the source.

Assays:
[1] = test system: STHdh 111/111 striatal cells; assay: Cell viability (CellTiter Glo) of heat shocked STHdh 111/111 striatal cells; format: cell-based, mouse; settings: Mus musculus, STHdh 111/111; 10 µM; 48 hours treatment; read-out: Cell Viability striatal cells 3h heat shocked
[2] = target: T1, mHTT (Mus musculus, UniProt P42859, DEL28-30/G47A/INS49LLPQPQPP/INS60VA/L56P/P40L); assay: mHTT reduction in STHdh 111/111 cells exposed to autophagy inhibitor NH4Cl or UPS inhibitor MG132; format: cell-based; set-up: host or cells: ST HDH Q111/111 mouse striatal derived cell line; settings: striatal cells exposed to MG132
Procedure: Invitrogen). […] Staining - Cells were permeabilized with 0.3% Triton X-100 in 4° C. PBS (pH 7.4 from ThermoFisher) for 10 minutes. Then the cells were washed two times with 4° C. PBS. Subsequently, cells are blocked with 3% NGS (normal goat serum from Thermo Fisher) in 4° C. PBS for 1 hour. […] Primary antibodies were mouse antipolyglutamine monoclonal antibody 3B5H10 (Sigma-Aldrich) at 1:250 dilution and Guinea Pig anti-MAP2 polyclonal antibody (Synaptic Systems) at 1:500 dilution. For LC3 staining primary antibodies were mouse anti-LC3 mab (5F10) (nanoTools) at 1:500 dilution and Guinea Pig anti-MAP2 polyclonal antibody (Synaptic Systems) at 1:500 dilution. Cells were washed 2 times with 4° C. PBS, and then incubated with secondary antibodies at 1:2000 dilution in blocking buffer for 1 hour at room temperature. […] Fluorescence Imaging - Imaging sessions were performed on a confocal microscope system (Carl Zeiss Microscopy) equipped with a dual spinning disk unit (Yokogawa). […] The fluorescence images obtained of the immunofluorescence labelled tissue sections were quantified with the help of the “Image Processing and Analysis in Java” or short ImageJ software distributed under the GNU General Public License by the NIH (Rueden, C.T. et al., BMC Bioinformatics. 2017 Nov 29;18(1):529), i.e. the edition used was the Fiji distribution (Schindelin, J. et al., Nature methods. 2012 Jun 28;9(7):676-82). […]

[3] = test system: Exon1 Q46; assay: Circular dichroism of Exon1 Q46, predominantly α-helical state; format: biochemical; settings: Exon1 Q46; conc. compound 1.62 µM
Procedure: Protein samples were diluted with buffer to 7.5 µM prior to Circular Dichroism (CD) measurements. Measurements were conducted at room temperature.
Four spectra at each measurement were taken every 1 nm from 200 to 260 nm, scanning at 50 nm/min with an averaging time of 1 sec. Spectra were obtained from samples in 20 mM phosphate, pH 7.4. Ten scans were averaged for each sample spectrum
Single-wavelength readings at 222 nm were obtained. After subtraction of the Trx contribution, the α-helical content of Httex1 was estimated from its mean residue ellipticity (MREHttex1) at 222 nm. This calculation was conducted as described by Bravo-Arredondo (Bravo-Arredondo, J.M. et al., J Biol Chem. 2018 Dec 21;293(51):19613-19623).
MRE Exon-1 […] and Q46 (Mean Residue Ellipticity) was measured every 1 sec for 300 sec; the 301 readings for each sample were averaged and MRE Trx subtracted. The number of amino acids in each sample to experience a change in helicity was estimated using a previously developed helix-coil transition model, which gave the change in fraction of helicity (ΔfHelix) by the following equation: […]
where MRE Exon1 Q26 or Q46 (MREHttex1 in the formula) describes the helix-coil transition, obtained from the difference between MRE Eon1 Q26 or Q46 at 222 nm of the fusion protein at the given temperature (in our case 37° C.) and the product of MRE Trx at 222 nm at the same temperature and the fraction of residues comprised by Trx in that particular construct, and
In order to calculate an equilibrium of the two states model, percent α-helicity was calculated using the relation of MREHttex1 = 0 and -34700 (deg cm^2 dmol^-1) for 0% and 100% helicity, respectively.
The CD measurements protocol for Compound 101 was the same as outlined above except that from 206 nm - 210 nm and 220 nm - 224 nm, the step size was 0.2 nm, and the bandwidth was 1 nm.

[4] = test system: Mur46; settings: 0.1 mM compound concentration
Procedure: MurTRX, Mur 16 and Mur46 Protein Purification - Proteins were loaded onto IMAC resin (ThermoFisher Scientific HisPur) and eluted in 200 mM imidazole, purified by gel filtration FPLC (HiLoad superdex-200, 26/60; GE Life sciences) and concentrated using 3 kDa cut off Vivaspin 20 PES centrifugal concentrators (Sartorius AG). Proteins were biotinylated using a 1:0.5 molar ratio of EZ-link™ Sulfo-NHS-LC-LC-Biotin (ThermoFisher Scientific) and thoroughly dialysed against PBS prior to Biacore coupling.
A customized biotin capture chip using NeutrAvidin as the capture ligand was created for this assay. To obtain high enough ligand density on the sensor chip surface, NeutrAvidin (Thermoscientific Pierce, Waltham, MA USA) was immobilised on all four sensor chip surfaces to a level of approximately 20,000 RU.
Capture of the Mur ligands to NeutrAvidin - Biotinylated proteins were diluted in HBS EP+ running buffer and captured on the sensor chip surface. Mur46 was coupled to the sensor chip first. After saturating FC3 with Mur46, target response levels for Mur16 and MurTRX were calculated based on their respective molecular weights. […]
Analog Screening-Methods - Analog or derivative compounds from the secondary screen were determined and were used in an analog Biacore SPR screen. […]

[5] = test system: zebrafish larvae; assay: Zebrafish MPP+ motility model, photomotor assay; format: in vivo; settings: MPP+ alone, 500 µM
Procedure: MPP+ selectively targets dopaminergic neurons; the putative mechanism is induction of K+ efflux, cell membrane hyperpolarization and inhibition of neuronal firing. This ultimately leads to an inhibition of complex I, a decrease in ATP production and promotion of the generation of reactive oxygen species upon accumulation in the mitochondria (3). The observed phenotype following exposure to 500 µM from 24 hours post fertilization (hpf) to 120 hpf is characterized by a decrease in movement during lights-on phases of a photomotor assay. In unpublished data below, representative locomotor perturbations of the distance moved and movement frequency is shown.
Six groups were included in each experiment. Immediately after spawning, 40 embryos per group were allocated to a 24-well plate and system water (solvent) was added to all wells. For assessment of neuroprotective potential, Compound 4 was added for a final concentration of 1, 10 and 20 µM (column 4-6). From the following day at 24 hpf, Compound 4 was co-incubated with 500 µM MPP+. MPP+ was prepared immediately prior to incubation and solutions were changed daily. At 120 hpf, drug treatment and MPP+ exposure was ceased and a 3X wash was performed with system water. Larvae were then relocated to 96-well plates for behavioral recording and placed in a separate recording room for 24-hour acclimation. Prior to behavioral recording, wells were fully replenished system water.
Naive group was exposed to solvent only. Vehicle group was exposed to solvent and vehicle corresponding to the vehicle of 20 µM drug solution (0.02% DMSO). MPP+ positive control was exposed to solvent and 500 µM MPP+. All compound groups were treated with the respective vehicle and respective concentration of compound 4.
Behavioral data was recorded from 1 p.m. on 6 dpf until shortly after wakening on 7 dpf. The recording consisted of a photomotor assay in which lights switch off and on in 30-minute intervals between 1 p.m. and 6 p.m., producing a consistent photomotor response. […] Upon lights being turned on again, the larvae cease movement followed by a return to baseline. This cycle is repeated five times. Following the last lights-off phase, constant illumination is presented until lights turn off at 10 p.m. for the night. Lights turn on again at 8 a.m. the following day.
Average movement frequency was measured during 30-minute lights-on phases of photomotor assay. Movement bouts were defined as initiated when velocity exceeded a threshold of 2 mm/s and ceased when velocity fell below 1 mm/s.
Distance moved (mm) was defined as the average distance moved during 30-minute lights-on phases of photomotor assay.
Data was obtained using EthoVision XT (Version 11.5.2016, Noldus) and exported to Microsoft Excel for data analysis. […]

[6] = Modified PAMPA with brain lipids, blood brain barrier permeation by LC-MS-MS; format: in vitro ADME
Procedure: Compounds from the Biacore screening were analyzed in a modified Parallel Artificial Permeation Assay (PAMPA) assay for their ability to permeate the blood brain barrier. The filter material of a 96-well microplate is impregnated with brain lipids (Di, L. et al., Eur. J. Med. Chem. 2003 Mar;38(3):223-232). The test compounds were added to the donor compartment. […] Based on these permeation data, the drugs were classified as blood brain barrier permeating (BBB+) with a flux rate >50% or non-permeating (BBB-) with a flux rate <50%.

[7] = test system: Htt14A2.6 PC12 cells (mHttex1-GFP); assay: mHTT aggregation by filter retardation assay in Htt14A2.6 PC12 cells; format: cell-based; settings: 24 hour treatment, different concentrations
Procedure: Compounds from the Biacore screening were selected for measurement of aggregation in a cell model Htt14A2.6 PC12. Htt14A2.6 PC12 cells express a GFP- tagged 97Q mHtt exon 1 fusion protein (mHttex1-GFP) in the presence of ponasterone A. Htt14A2.6 PC12 cells were grown in medium containing 5 µM ponasterone A for 20 hours prior to treatment with the compounds. Htt14A2.6 PC12 cells were plated at 50~60% confluency. Compound 22 was tested at a final concentration of 80 nM, 400 nM and 10 µM in cell culture medium for 24 hours. Htt14A2.6 PC12 cells were harvested, rinsed, homogenized in cold phosphate-buffered saline containing protease inhibitor cocktail, and centrifuged at 16000 g for 30 min at 4° C. twice. About 25 µg total protein of each sample was resolved in 8% SDS PAGE, transferred onto PVDF membrane, blotted with an anti-GFP antibody, and visualized by ECL detection. mHTT aggregates were quantified from the cell lysates by filter retardation assay (Wanker, E.E., et al., Methods Enzymol (1999); 309: 375-386).

[8] = target: T1, mHTT; assay: Diffuse mHTT levels in heat shocked STHdh 111/111 striatal cells by immunocytochemistry; settings: 48 h, read-out: mHTT after treatment
Procedure: Pre-Treatment of striatal cell line - First the medium was removed and new DMEM (DMEM, high glucose, HEPES, no phenol red) medium, supplemented with 10% fetal bovine serum (FBS), 1% Penicillin-Streptomycin, containing 10 µM compound was added. The cells were incubated at 33° C. for 24 hours.
Heat shock - Cells were heat shocked for 3 hours at 41° C.
Treatment - Medium was removed and new DMEM (DMEM, high glucose, HEPES, no phenol red) medium, supplemented with 1% fetal bovine serum (FBS), 1% Penicillin-Streptomycin, containing 10 µM compound was added. The cells were incubated at 33° C. for 48 hours.
Staining - Cells were permeabilized with 0.3% Triton X-100 in 4° C. PBS (pH 7.4 from ThermoFisher) for 10 minutes. Then the cells were washed two times with 4° C. PBS. Subsequently, cells are blocked with 3% NGS (normal goat serum from Thermo Fisher) in 4° C. PBS for 1 hour. Cells were incubated with primary antibodies in blocking buffer (PBS, 3% NGS, 0.02% NaN3) over night at 4° C. Primary antibodies were mouse antipolyglutamine monoclonal antibody 3B5H10 (Sigma-Aldrich) at 1:250 dilution and Guinea Pig anti-MAP2 polyclonal antibody (Synaptic Systems) at 1:500 dilution. 3B5H10 binds to diffuse mHTT. Diffuse mHTT is a monomeric and small oligomeric mHTT.
Cells were washed 2 times with 4° C. PBS, and then incubated with secondary antibodies at 1:2000 dilution in blocking buffer for 1 hour at room temperature. […] Cells were washed 2 times with 4° C. PBS, and then the nuclei were counterstain with DAPI (ThermoFisher) for 10 min at room temperature in the dark. Cells were washed 2 times with 4° C. PBS, and then 4° C. PBS was added to cells and then images were acquired.
Fluorescence Imaging - Imaging sessions were performed on a confocal microscope system (Carl Zeiss Microscopy) equipped with a dual spinning disk unit (Yokogawa). All components of the imaging system were controlled via the ZEN 2 software suite (Carl Zeiss Microscopy). The laser lines used were 405 nm, 488 nm and 639 nm to excite DAPI or the respective fluorophores. […] Nested t test was performed to calculate the significance amongst repeated measurements using GraphPad Prism software.
ST HDH Q7/7 (CH00097, Coriell Institute) striatal derived cell line from a knock in transgenic mouse containing HTT loci with a humanized Exon 1 containing 7 polyglutamine repeats.
EC 50 value was determined with non-linear regression.

T1 sequence (P42859 with tags, fused parts or gaps DEL28-30/P40L/G47A/INS49LLPQPQPP/L56P/INS60VA): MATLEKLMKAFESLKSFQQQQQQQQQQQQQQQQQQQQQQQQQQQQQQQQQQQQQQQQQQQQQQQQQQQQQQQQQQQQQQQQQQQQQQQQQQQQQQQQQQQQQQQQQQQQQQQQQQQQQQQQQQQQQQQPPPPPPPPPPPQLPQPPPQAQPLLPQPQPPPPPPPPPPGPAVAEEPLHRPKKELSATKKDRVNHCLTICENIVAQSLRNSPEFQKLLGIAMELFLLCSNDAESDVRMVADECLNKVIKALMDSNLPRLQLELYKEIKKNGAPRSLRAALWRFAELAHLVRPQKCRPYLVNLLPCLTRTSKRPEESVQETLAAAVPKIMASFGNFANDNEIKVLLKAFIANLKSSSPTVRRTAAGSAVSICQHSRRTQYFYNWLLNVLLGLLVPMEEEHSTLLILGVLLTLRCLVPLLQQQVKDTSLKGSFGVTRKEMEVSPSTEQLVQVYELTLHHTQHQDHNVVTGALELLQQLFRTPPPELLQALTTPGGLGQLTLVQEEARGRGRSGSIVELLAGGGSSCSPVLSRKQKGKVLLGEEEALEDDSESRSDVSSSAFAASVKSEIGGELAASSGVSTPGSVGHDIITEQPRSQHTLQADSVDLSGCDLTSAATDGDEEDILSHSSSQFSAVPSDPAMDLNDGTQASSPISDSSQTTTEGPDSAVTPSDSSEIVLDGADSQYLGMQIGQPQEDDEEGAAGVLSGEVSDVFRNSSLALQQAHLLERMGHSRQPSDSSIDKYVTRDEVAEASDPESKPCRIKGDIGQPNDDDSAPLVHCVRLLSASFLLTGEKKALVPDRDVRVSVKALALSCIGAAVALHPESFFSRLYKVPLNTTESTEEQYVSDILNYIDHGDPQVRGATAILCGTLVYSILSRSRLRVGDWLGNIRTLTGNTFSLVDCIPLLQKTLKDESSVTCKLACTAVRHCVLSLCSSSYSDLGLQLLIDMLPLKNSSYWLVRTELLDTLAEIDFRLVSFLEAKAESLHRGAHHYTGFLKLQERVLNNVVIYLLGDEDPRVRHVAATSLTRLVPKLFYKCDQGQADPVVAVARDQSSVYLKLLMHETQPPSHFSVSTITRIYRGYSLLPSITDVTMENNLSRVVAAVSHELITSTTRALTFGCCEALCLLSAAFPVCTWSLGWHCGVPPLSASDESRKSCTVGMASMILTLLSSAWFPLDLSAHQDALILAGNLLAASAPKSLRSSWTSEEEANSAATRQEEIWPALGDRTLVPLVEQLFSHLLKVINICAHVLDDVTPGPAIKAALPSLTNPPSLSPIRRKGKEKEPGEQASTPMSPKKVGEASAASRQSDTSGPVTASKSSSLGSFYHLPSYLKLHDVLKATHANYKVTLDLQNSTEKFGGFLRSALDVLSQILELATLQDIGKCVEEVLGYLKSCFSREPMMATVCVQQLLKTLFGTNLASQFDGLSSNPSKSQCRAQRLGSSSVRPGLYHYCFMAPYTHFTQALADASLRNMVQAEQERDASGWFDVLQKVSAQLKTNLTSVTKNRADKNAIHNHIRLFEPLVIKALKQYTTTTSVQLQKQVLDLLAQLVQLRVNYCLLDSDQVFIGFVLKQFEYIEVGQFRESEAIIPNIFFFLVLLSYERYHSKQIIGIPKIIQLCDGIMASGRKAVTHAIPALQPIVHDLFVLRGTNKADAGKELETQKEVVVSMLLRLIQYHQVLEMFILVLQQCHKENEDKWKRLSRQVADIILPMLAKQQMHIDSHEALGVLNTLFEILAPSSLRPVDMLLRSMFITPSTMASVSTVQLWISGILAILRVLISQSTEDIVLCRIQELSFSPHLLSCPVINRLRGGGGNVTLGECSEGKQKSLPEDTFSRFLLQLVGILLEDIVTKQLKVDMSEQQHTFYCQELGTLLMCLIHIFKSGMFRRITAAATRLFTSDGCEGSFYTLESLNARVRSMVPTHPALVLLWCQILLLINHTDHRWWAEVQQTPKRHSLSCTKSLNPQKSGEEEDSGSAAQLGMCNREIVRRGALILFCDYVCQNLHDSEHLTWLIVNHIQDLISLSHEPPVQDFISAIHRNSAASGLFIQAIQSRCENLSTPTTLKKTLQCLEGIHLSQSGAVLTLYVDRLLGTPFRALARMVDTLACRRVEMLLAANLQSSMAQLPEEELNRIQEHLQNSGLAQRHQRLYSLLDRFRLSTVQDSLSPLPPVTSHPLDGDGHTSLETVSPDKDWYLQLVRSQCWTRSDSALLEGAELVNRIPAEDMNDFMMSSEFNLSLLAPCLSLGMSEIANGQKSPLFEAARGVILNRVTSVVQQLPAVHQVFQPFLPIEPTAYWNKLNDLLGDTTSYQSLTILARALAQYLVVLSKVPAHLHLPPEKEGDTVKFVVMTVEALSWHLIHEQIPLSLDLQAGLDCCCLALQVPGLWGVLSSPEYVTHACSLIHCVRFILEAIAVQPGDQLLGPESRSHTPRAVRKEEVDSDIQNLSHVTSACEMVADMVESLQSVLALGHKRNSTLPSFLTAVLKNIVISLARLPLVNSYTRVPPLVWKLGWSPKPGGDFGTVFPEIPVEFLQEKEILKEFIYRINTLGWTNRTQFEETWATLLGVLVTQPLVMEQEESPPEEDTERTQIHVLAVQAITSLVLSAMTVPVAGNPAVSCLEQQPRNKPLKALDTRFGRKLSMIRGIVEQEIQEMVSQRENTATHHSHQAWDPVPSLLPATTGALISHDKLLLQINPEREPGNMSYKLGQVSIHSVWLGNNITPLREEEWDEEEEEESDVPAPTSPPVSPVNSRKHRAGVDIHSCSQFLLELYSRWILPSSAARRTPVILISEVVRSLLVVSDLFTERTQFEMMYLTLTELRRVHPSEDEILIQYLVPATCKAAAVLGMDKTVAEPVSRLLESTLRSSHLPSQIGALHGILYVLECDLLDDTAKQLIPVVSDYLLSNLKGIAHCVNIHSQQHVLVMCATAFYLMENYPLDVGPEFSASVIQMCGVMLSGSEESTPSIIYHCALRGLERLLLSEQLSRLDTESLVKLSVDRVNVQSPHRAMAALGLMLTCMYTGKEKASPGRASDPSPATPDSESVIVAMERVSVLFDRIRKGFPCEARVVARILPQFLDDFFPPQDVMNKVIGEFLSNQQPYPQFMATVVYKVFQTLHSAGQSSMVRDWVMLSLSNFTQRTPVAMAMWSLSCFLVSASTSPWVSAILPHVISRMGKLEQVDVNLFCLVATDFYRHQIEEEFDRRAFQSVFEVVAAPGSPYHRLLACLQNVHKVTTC

With `O=C(NCCN1CCC1)c1ccc2[nH]c3c(c2c1)CCCC3` [Compound 20] the viability at 10 µM [1] was 118% and the “mHTT reduction with MG132 in comparison to without MG132” value [2] was “less”.

With `Cc1[nH]c2ccc(C(=O)NC3CCC(N(C)C)CC3)cc2c1C` (stereo not drawn) [Compound 101, N-(4-(dimethylamino)cyclohexyl)-2,3-dimethyl-1H-indole-5-carboxamide] the viability at 10 µM [1] was 110% and the “Fraction Helix fH (%)” value [3] was 19.0%.

For `Cc1[nH]c2ccc(C(=O)N(C)CCN(C)C3CC3)cc2c1C` [Compound 114], the “Biacore affinity (RU^2)” value [4] was 20 RU^2.

With `C[n+]1ccc(-c2ccccc2)cc1` [MPP+, reference compound] the “distance moved compared to naive larvae” value [5] was “moved significantly shorter distances than naive larvae”.

For `Cc1[nH]c2ccc(C(=O)NCCN(C)C)cc2c1C` [Compound 7], the Classification [6] was “BBB+ (blood brain barrier permeating (BBB+) with a flux rate >50%)”, the recovery [6] was 88.5% and the “reduction of mHTT aggregation (filter retardation)” value [7] was “A reduction of aggregation of Htt14A2.6 PC12 was not observed; also recorded: did not show a reduction of aggregation”. For the same compound, the viability at 10 µM [1] was 96%, the “Biacore affinity (RU^2)” value [4] was 122 RU^2 and the remaining activity at 10 µM [8] was 45%.
